Experimental data published in patent US5932217A, “Peptides which inhibit adhesion between leukocytes and endothelial cells” (priority 1994, dated 1999).

What was measured:
[1] = system: human umbilical vein endothelial cells; experiment: Transendothelial migration of neutrophils; type: cell-based; conditions: peptides 0.01 mM
Method: Transendothelial migration of neutrophils was studied based on a method described by Muller et al. (1992), J. Exp. Med. 176: 819-828. Briefly, human neutrophils suspended in ice-cold Hanks balanced salt solution (HBSS) containing Ca^++ and Mg^++ (Sigma) were fluoresceinated by adding 3.3 μl/ml 5-(and 6-)carboxyfluorescein diacetate, succinimidyl ester (CFSE, Molecular Probes Inc., Oreg.). After incubation for 30 mins. on ice, neutrophils were washed twice in cold HBSS with Ca^++ and Mg^++ and resuspended in cold Medium 199 (M199, Sigma) to a final concentration of 10^6 /ml. Human umbilical vein endothelial cells were subcultured at confluence into 96-well tissue culture plates (Becton Dickinson Labware, Lincoln Park, N.J.) that were coated with hydrated collagen gel (Vitrogen; Collagen Corporation, Palo Alto, Calif.) and fibronectin. Endothelial cells were stimulated with 10 ng/ml TNF-alpha for 4 hours and washed three times with warm M199. Neutrophils (10^6 /ml) were preincubated with 0.01 mM of peptides or with 1 μM of native FHA in M199 for 5 mins. on ice before they were added in 100 μl aliquots to the endothelial cells. For positive control, neutrophils were pre-incubated with 25 μg/ml anti-CD18 mAb IB4. For negative control, neutrophils were treated with 25 μg/ml mAb W6/32 against HLA class I antigen (Dako, Carpinteria, Calif.). The cells were incubated for 1 hour at 37° C., 5% CO2. To terminate transmigration, the supernatant fluid was aspirated and the wells were filled with warm 1 mM EGTA (Sigma) in HBSS without Ca and Mg. The plates were covered with plate sealers (Dynatech, Alexandria, Va.) and centrifuged in an inverted position at 250 g for 3 mins. at room temperature. To remove residual non-transmigrated neutrophils from the endothelial cells, monolayers were washed twice with 200 μl of warm Hanks solution without Ca and Mg. Fluorescence was quantitated using a fluorescence counter (Millipore Cytofluor™ 2300). The percentage of transmigrated neutrophils was determined by comparing the amount of fluorescence of test wells with that measured in collagen- and fibronectin-coated wells without endothelial cells. […] Percent inhibition of transendothelial migration of neutrophils was calculated by comparing the number of transmigrated cells in wells containing neutrophils treated with peptide to neutrophils treated with M199 alone and arbitrarily set at 100% transendothelial migration (TEM).
(§1) The procedures for determining the neutrophil adherence to cultured endothelial cells and the transendothelial migration of neutrophils were identical with those of Example 9. Control values were the same as those shown in Example 9.

[2] = system: human umbilical vein endothelial cells; experiment: Adherence of neutrophils to cultured activated endothelial cells; type: cell-based
Method: Human umbilical vein endothelial cells (HUVEC, first passage, Clonetics, San Diego, Calif.) were subcultured at confluence into Terasaki tissue culture wells. After 24 hours, confluent monolayers were used for adherence assays. Monolayers were stimulated with 10 ng/ml TNF alpha (Boehringer Mannheim, Indianapolis, Ind.) at 37° C. for four hours. 30 μl of human neutrophils (10^6 /ml) were labeled with fluorescein by the method of Lo et al. (1991), J. Exp. Med. 173 1493-1500, and preincubated for 15 minutes at 37° C. with 20 μl of peptides (0.5 mM in HAP) or HAP (phosphate buffered saline containing 0.5 mg/ml human serum albumin, 3 mM glucose, and 0.3 U/ml aprotinin) as a control buffer. For some experiments, endothelial cells ere pretreated from 10 minutes with Factor X or antibodies against Factor X receptor (EPR-1; Altieri et al. (1990), J. Immunol. 145, 246-253) 12H1 and 9D4 (obtained from Dr. D. Altieri, Scripps Research Institute, LaJolla, Calif.) and then washed. Neutrophils were allowed to adhere to the monolayer for 15 mins. at 37° C. and unbound cells were removed by submersion of the plate in PBS buffer. The number of adherent neutrophils was counted in a 40× microscope field and expressed as a percentage of adherence in control wells with neutrophils treated with HAP buffer alone. The mAb IB4 against CD18 (50 μg/ml; Merck Inc., Rahway, N.J.) served as a positive control.
The ability of FHA peptides and anti-CD18 or anti-Factor X receptor antibodies to interact cooperatively to inhibit neutrophil adherence to endothelial cells was assessed by measuring neutrophil adherence to endothelial cells in the presence of antibody as well as antibody plus peptide. Anti-CD18 mAb IB4 was added to leukocytes at 10 μg/ml 10 min before the assay. Anti-Factor X receptor mAb 12H1 (10 μl of ascites) or 9D4 (10 μg/ml) were added to the endothelial cell monolayers 10 min before the assay. The peptides were added at 5 μg/ml. The results are shown in Table 8 where the numerical values are in % of control binding.
as §1

Substance	% Inhibition of TEM ([1]; native FHA 1 μM, mAbs 25 μg/ml) [%]	% Inhibition of TEM ([1]; native FHA 1 μM, mAbs 25 μg/ml, listed as acetyl/amide modified FHA peptide II) [%]	inhibition of neutrophil adherence to stimulated HUVEC, comparison in words ([2]; peptides 0.5 mM, FIG. 17)	% Inhibition of TEM ([1]; FHA 1 μM, mAb IB4 25 μg/ml) [%]	% Inhibition of TEM ([1]; FHA 1 μM, mAb IB4 25 μg/ml, listed as Intact FHA) [%]	concentration at which loss of activity (≤20% inhibition) occurred [2]	maximal inhibition of neutrophil attachment ([2]; FIG. 25B)	inhibition of adherence of human neutrophils to cultured endothelial cells ([2]; Native FHA 50 ug/ml (0.2 uM), FHA peptide C 1 mg/ml (0.2 mM)) [%]	reduction of neutrophil adherence to stimulated HUVEC ([2]; native FHA 25 μg/ml=0.3 μM, mAb IB4 50 μg/ml) [%]
Ac-ETKEVDG-NH2 [Acetyl/Amide-FHA II]	61 ± 6	61±6	significantly enhanced						
Filamentous hemagglutinin [native FHA]	82±1			82 ± 1	82±1	10^-3 μM	~ 50%	51±7	51±8
